Article PMC9452769 (Molecular Plant Pathology, 2022)

Biological target: T1, OxyR (OxyR-His) (Xanthomonas campestris, UniProt Q8PCA2)
T1 sequence (Q8PCA2 1-313): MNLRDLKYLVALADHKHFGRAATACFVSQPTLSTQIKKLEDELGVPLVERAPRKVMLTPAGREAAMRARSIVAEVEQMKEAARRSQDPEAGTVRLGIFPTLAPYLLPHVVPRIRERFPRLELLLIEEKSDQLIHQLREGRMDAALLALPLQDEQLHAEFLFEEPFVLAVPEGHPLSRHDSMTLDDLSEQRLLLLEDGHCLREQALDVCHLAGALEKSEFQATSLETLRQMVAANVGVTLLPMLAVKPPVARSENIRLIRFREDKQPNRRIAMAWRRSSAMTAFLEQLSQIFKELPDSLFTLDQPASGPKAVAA
Assay: microscale thermophoresis
Format: binding

In the case of C[S@@+]([O-])CCCCN=C=S [sulforaphane], the Kd is reported as 325 ± 105 nM.
